According to the Deep4Chem optical property database:
Each block holds one molecule with its values, some of them ahead of it.

Assay: solvent given as SMILES
[1] = in c1ccc2c(c1)c1ccccc1n2-c1ccc(-c2ccc(-n3c4ccccc4c4ccccc43)cc2)cc1
[2] = in O=P(c1ccccc1)(c1ccccc1)c1ccccc1Oc1ccccc1P(=O)(c1ccccc1)c1ccccc1

emission maximum (in CCO): 431 nm
SMILES: O=c1c2cc(F)c(O)cc2n(Cc2ccccc2)c2cc(O)c(F)cc12

emission maximum (in ClC(Cl)Cl): 504 nm
SMILES: O=C1NC(=O)c2ccc(N3CCOCC3)c3cccc1c23

emission maximum (in ClC(Cl)Cl): 501 nm
SMILES: CCCCCCN1C(=O)c2cccc3cc(/N=C\c4ccc5c(c4)c4ccccc4n5CC)cc(c23)C1=O

emission maximum (in CCO): 676 nm
emission maximum (in CO): 679 nm
emission maximum (in CS(C)=O): 683 nm
emission maximum (in O): 673 nm
SMILES: CN1/C(=C/C=C(/C=C/c2sc3ccccc3[n+]2C)c2ccccc2)Sc2ccccc21

emission maximum (in CS(C)=O): 446 nm
SMILES: N#CC1=C(N)n2c(=O)c3ccccc3c(=O)n2C1c1cccs1 (stereo not given)

emission maximum (in CO): 350 nm
emission maximum (in CS(C)=O): 360 nm
SMILES: COc1ccc(NC(=O)C(C(=O)Nc2ccc(OC)cc2)C(c2ccccc2O)c2c(C)[nH]c3ccccc23)cc1 (stereo not given)

emission maximum (in C1CCCCC1): 359 nm
SMILES: c1ccc(-c2ccc(-c3ccc4c(c3)CCCO4)cc2)cc1

emission maximum (in ClCCl): 568 nm
SMILES: Cc1cc(C)c(C2=C3C=C(/C=C/C(=O)OCc4ccccc4)C=[N+]3[B-](F)(F)n3cccc32)c(C)c1

emission maximum (in CCO): 666 nm
emission maximum (in CO): 666 nm
emission maximum (in CS(C)=O): 669 nm
emission maximum (in O): 662 nm
SMILES: CN1/C(=C/C=C(/C=C/C2=[N+](C)c3ccccc3C2(C)C)c2ccc(F)cc2)C(C)(C)c2ccccc21

emission maximum (in CS(C)=O): 379.1 nm
SMILES: c1ccc2[nH]c(-c3cc(-c4nc5ccccc5[nH]4)cc(-c4nc5ccccc5[nH]4)c3)nc2c1

emission maximum (in C1CCOC1): 526 nm
SMILES: N#Cc1c(N2CCCCC2)cc(-c2cccc3ccccc23)c2c1-c1ccccc1C2=O

emission maximum (in ClC(Cl)Cl): 419 nm
SMILES: CN(C)c1ccc(-c2ccc(-c3cc(-c4ccccc4)c(-c4ccccc4)c(-c4ccccc4)c3-c3ccccc3)s2)cc1

emission maximum (in CC#N): 415 nm
emission maximum (in CN(C)C=O): 433 nm
emission maximum (in ClCCl): 432 nm
SMILES: CCN(CC)c1ccc(/C=N/CC/N=C/c2ccc(N(CC)CC)cc2O)c(O)c1

emission maximum (in CC#N): 446 nm
emission maximum (in CCCCCC): 390 nm
SMILES: Nc1ccc(/C=C/c2cccnc2)cc1

emission maximum (in O): 350 nm
SMILES: CCOC(=O)c1c(CSc2ccccc2)n(C)c2cc(Br)c(O)c(CN(C)C)c12

emission maximum (in ClC(Cl)Cl): 499 nm
SMILES: CCCCc1ccc(-n2c3c4ccc(C(F)(F)F)cc4nc(-c4ccc(C#N)cc4)c3c3c2c2c(-c4ccc(C#N)cc4)nc4cc(C(F)(F)F)ccc4c2n3-c2ccc(CCCC)cc2)cc1

emission maximum (in CC#N): 553 nm
SMILES: N#CC(/N=C/c1ccccc1O)=C(C#N)/N=C/c1ccccc1O

The remaining lines, values behind:

SMILES: O=C1C(=c2c(=O)c3c4ccccc4cc4cc5ccccc5c2c43)C(=O)c2ccccc21
emission maximum (in C1CCOC1): 583 nm
emission maximum (in CC#N): 604 nm
emission maximum (in CCCCCC): 556 nm
emission maximum (in Cc1ccccc1): 578 nm
emission maximum (in ClCCl): 599 nm

SMILES: CCc1cccc(CC)c1-c1c2ccccc2c(-c2c(CC)cccc2CC)c2cc3ccccc3cc12
emission maximum (in ClCCl): 501 nm

SMILES: COc1ccccc1C1=[N+]2C(=Cc3c4c(c(-c5ccccc5OC)n3[B-]2(F)F)C2CCC4CC2)C2=C1C1CCC2CC1
emission maximum (in ClCCl): 583 nm

SMILES: CC(C)(C)c1ccc2c(c1)c1cc(C(C)(C)C)ccc1n2-c1ccc(N(c2ccc(-c3ccc(-c4ccc(-c5ccc(-c6ccc(-c7ccc(N(c8ccc(-n9c%10ccc(C(C)(C)C)cc%10c%10cc(C(C)(C)C)ccc%109)cc8)c8ccc(-n9c%10ccc(C(C)(C)C)cc%10c%10cc(C(C)(C)C)ccc%109)cc8)cc7)s6)s5)s4)s3)cc2)c2ccc(-n3c4ccc(C(C)(C)C)cc4c4cc(C(C)(C)C)ccc43)cc2)cc1
emission maximum (in ClCCl): 529 nm

SMILES: CCCCCCCC[n+]1ccc(-c2cc[n+](CCCCCCCC)cc2)cc1
emission maximum (in CC#N): 353 nm

SMILES: CCOC(=O)c1c2c3c(ccc(OC)c3c3cc4c(cc13)[Si](C)(C)O[Si]4(C)C)N(C)C2=O
emission maximum (in CC#N): 418 nm

SMILES: COc1ccc(-c2cccc3ncc(-c4ccc(C#N)cc4)n23)cc1
emission maximum (in ClCCl): 447 nm

SMILES: CN(C)c1ccc(/C=C/c2nc3ccc(Br)cc3nc2-c2ccccc2)cc1
emission maximum (in C1COCCO1): 555 nm
emission maximum (in CC#N): 648 nm
emission maximum (in ClCCl): 602 nm

SMILES: CCCCCCN1C(=O)c2cccc3c(-c4ccc(Cl)s4)ccc(c23)C1=O
emission maximum (in ClC(Cl)Cl): 482 nm

SMILES: CCOC(=O)/C(C#N)=C\c1ccc2c(c1)c1ccccc1n2-c1ccc(OC)cc1
emission maximum (in C1CCOC1): 460 nm
emission maximum (in CC#N): 522 nm
emission maximum (in CC(C)=O): 508 nm
emission maximum (in CCOC(C)=O): 479 nm
emission maximum (in CO): 532 nm
emission maximum (in CS(C)=O): 542 nm
emission maximum (in Cc1ccccc1): 455 nm
emission maximum (in ClC(Cl)Cl): 486 nm

SMILES: N#CC(C#N)=C(c1ccc(-n2ccc3ccccc32)cc1)c1ccc(-n2ccc3ccccc32)cc1
emission maximum (in Cc1ccccc1): 536 nm

SMILES: COc1cc(-c2cnc(-c3cnc4ccccc4c3)o2)cc(OC)c1OC
emission maximum (in ClCCl): 458 nm

SMILES: CCCCCCCCOc1cc(/C=C/c2cc(OCCCCCCCC)c(/C=C/c3cc(OCCCCCCCC)c(Br)cc3OCCCCCCCC)cc2OCCCCCCCC)c(OCCCCCCCC)cc1Br
emission maximum (in ClCCl): 467 nm

SMILES: c1ccc(-c2nc(-c3ccccc3)nc(-c3ccc(N4c5ccccc5C5(c6ccccc64)c4ccccc4C4(c6ccccc6-c6ccccc64)c4ccccc45)cc3)n2)cc1
emission maximum (in Cc1ccccc1): 475.42 nm

SMILES: CN(C)c1ccc(/C=C/c2nc(N3CCOCC3)c3c([n+]2[O-])CCCC3)cc1
emission maximum (in ClCCl): 523 nm

SMILES: c1ccc2c(c1)ccc1ccc3ccc4ccccc4c3c12
emission maximum (in ClC(Cl)Cl): 424 nm

SMILES: CCCCCCN1C(=O)c2cccc3c(-c4ccc(-c5cccs5)s4)ccc(c23)C1=O
emission maximum (in ClC(Cl)Cl): 534 nm

SMILES: Fc1ccc2c(c1)sc1nc(-c3ccccc3)sc12
emission maximum (in CS(C)=O): 407 nm

SMILES: CCCCCCCC[Si](C)(C)c1cccc2ccccc12
emission maximum (in C1CCCCC1): 329 nm

SMILES: COc1ccccc1C1=[N+]2C(=Nc3c(-c4ccccc4)cc(-c4ccccc4OC)n3[B-]2(F)F)C(c2ccccc2)=C1
emission maximum (in Cc1ccccc1): 688 nm

SMILES: Cc1cc(C)c(B(c2c(C)cc(C)cc2C)c2c(C)cc(N3c4ccccc4Oc4ccccc43)cc2C)c(C)c1
emission maximum (in Cc1ccccc1): 509 nm
emission maximum [1]: 504 nm

SMILES: C[Si](C)(C)c1cc2c(cc3ccc4cccc5ccc2c3c45)[nH]1
emission maximum (in CCOC(C)=O): 406 nm

SMILES: C(#Cc1ccccc1)C(C#Cc1ccccc1)=Cc1ccccc1
emission maximum (in ClC(Cl)Cl): 392 nm

SMILES: c1ccc(N(c2ccccc2)c2ccc(-n3ccc4cc(-c5cccc6c5-c5ccccc5C6(c5ccccc5)c5ccccc5)ccc43)cc2)cc1
emission maximum (in ClCCl): 381 nm

SMILES: COc1ccc2c(c1)[nH]c1c3[nH]c4cc(OC)ccc4c3c3nsnc3c21
emission maximum (in CN(C)C=O): 544 nm
emission maximum (in Cc1ccccc1): 501 nm
emission maximum (in ClCCl): 540 nm

SMILES: CCCC1=Cc2nc1ccc1[nH]c(cc1CCO)c1nc(ccc3[nH]c2cc3CCC)C(CCO)=C1
emission maximum (in Cc1ccccc1): 642 nm

SMILES: N#Cc1cccc(C#N)c1-n1c2ccccc2c2cc(-c3ccc4c(c3)c3ccccc3n4-c3c(C#N)cccc3C#N)ccc21
emission maximum (in Cc1ccccc1): 488 nm
emission maximum [2]: 488 nm

SMILES: CCCCN1c2ccccc2Sc2cc(/C=C\c3cc(=O)oc4cc(C)ccc34)ccc21
emission maximum (in ClC(Cl)Cl): 632 nm

SMILES: F[B-]1(F)OC(c2ccccc2)=CC(c2ccccc2)=[O+]1
emission maximum (in CC#N): 398 nm
emission maximum (in ClC(Cl)(Cl)Cl): 389 nm

SMILES: COc1ccc(/N=N/c2c(O)c3ccccc3n(C)c2=O)c(S(=O)(=O)O)c1
emission maximum (in C1CCOC1): 527 nm
emission maximum (in CC(C)=O): 528 nm
emission maximum (in CCOC(C)=O): 525 nm
emission maximum (in CO): 532 nm
emission maximum (in CS(C)=O): 548 nm
emission maximum (in Cc1ccccc1): 519 nm
emission maximum (in ClCCl): 542 nm
emission maximum (in O): 583 nm

SMILES: CC(C)(C)c1ccc2c(c1)c1cc(C(C)(C)C)ccc1n2-c1ccccc1-c1nc(-c2ccccc2P(=O)(c2ccccc2)c2ccccc2)nc(-c2ccccc2P(=O)(c2ccccc2)c2ccccc2)n1
emission maximum (in C1CCOC1): 515.1 nm
emission maximum (in CC#N): 548.81 nm
emission maximum (in CC(C)=O): 532.75 nm
emission maximum (in CN(C)C=O): 539.75 nm
emission maximum (in Cc1ccccc1): 498.41 nm
emission maximum (in ClC(Cl)Cl): 511.13 nm
emission maximum (in ClCCl): 526.23 nm
emission maximum [2]: 504 nm

SMILES: Cc1cc(C)c(-c2nnc(-c3ccc(-n4c5ccccc5c5ccccc54)c(C)c3)o2)c(C)c1
emission maximum (in CCO): 440 nm
emission maximum (in Cc1ccccc1): 377 nm

SMILES: Cc1ccc(C2=C3C=CC=[N+]3[B-](F)(F)n3cccc32)cc1
emission maximum (in C1CCCCC1): 516 nm
emission maximum (in CC#N): 514.5 nm
emission maximum (in CCO): 514.5 nm
emission maximum (in CCOC(C)=O): 514.5 nm
emission maximum (in CO): 513.5 nm
emission maximum (in OCC(F)(F)F): 509.5 nm

SMILES: CCN(CC)c1ccc(/C=C/c2cc(/C=C/c3ccc(N(CC)CC)cc3)nc(N)n2)cc1
emission maximum (in Cc1ccccc1): 468 nm
emission maximum (in ClC(Cl)Cl): 518 nm

SMILES: CC(C)(C)OC(=O)NCCCC(=O)OCc1ccc2c3cccc4cccc(c5cccc1c52)c43
emission maximum (in CCO): 446 nm

SMILES: CCN(CC)c1ccc2c(-c3ccccc3C(=O)O)c3c([o+]c2c1)/C(=C/c1ccc2c(c1)c1ccccc1n2CC)CCC3
emission maximum (in ClCCl): 712 nm

SMILES: CCN1/C(=C\C2=C([O-])C(=C/C3=[N+](CC)c4ccccc4C3(C)C)/C2=O)C(C)(C)c2ccccc21
emission maximum (in ClC(Cl)Cl): 643 nm

SMILES: O=P1(c2ccccc2)c2cc(N3c4ccccc4Oc4ccccc43)ccc2-c2ccc(N3c4ccccc4Oc4ccccc43)cc21
emission maximum (in Cc1ccccc1): 540 nm
emission maximum [1]: 550 nm

SMILES: O=c1oc2ccccc2c2c1c(=O)oc1ccc3ccc(O)cc3c12
emission maximum (in CS(C)=O): 506 nm
emission maximum (in ClCCl): 517 nm

SMILES: O=C1Nc2ccccc2/C1=C/C(=O)c1ccccc1
emission maximum (in C1CCCCC1): 374 nm
emission maximum (in C1COCCO1): 396 nm
emission maximum (in CC#N): 398 nm
emission maximum (in CC(C)(C)O): 407 nm
emission maximum (in CC(C)O): 412 nm
emission maximum (in CCCCCC): 374 nm
emission maximum (in CCCCO): 411 nm
emission maximum (in CCOC(C)=O): 394 nm
emission maximum (in CN(C)C=O): 404 nm
emission maximum (in CO): 412 nm
emission maximum (in ClCCl): 398 nm
emission maximum (in O): 424 nm

SMILES: CCc1c(C)c2n(c1C)[B-](F)(F)[N+]1=C(c3ccc[nH]3)c3ccccc3C1=C2C
emission maximum (in C1CCOC1): 627 nm
emission maximum (in CC#N): 623 nm
emission maximum (in CCCCCC): 622 nm
emission maximum (in CO): 622 nm
emission maximum (in Cc1ccccc1): 630 nm
emission maximum (in ClCCl): 629 nm
